Converted amounts (≈) assume the structure as drawn. Where two headings read alike, the source gives them in different places. Marks after values point to notes of the source that are not given here.
Assays:
[1] = system: K. pneumoniae ATCC 700603; test: microbe, parasite or virus in culture; settings: for MIC: Klebsiella pneumoniae; for RO7223280 MIC 100%: K. pneumoniae ATCC 700603, read at 100%
Method: MIC determinations were performed using the broth microdilution method and in line with CLSI guidelines M07 and M100 (refs. [37],[38]). Bacterial inocula were prepared by diluting a 0.5 McFarland suspension in CAMHB or lysogeny broth (LB) specifically for A. baylyi isolates. […] MIC values of all of the tested antibiotics were read as the lowest compound concentration inhibiting bacterial growth by naked eye or beyond which the OD600 ceased to decrease.

[2] = system: panel of 50 off-targets; test: Off-target activity screening, number of hits in panel of 50; assay type: binding; settings: > 30% inhibition at 10 μM
[3] = molecular target: CYP3A4 (Homo sapiens, UniProt P08684); test: CYP inhibition; assay type: in vitro ADME
[4] = GSH adduct; assay type: in vitro ADME
[5] = Fraction unbound in mouse plasma; assay type: in vitro ADME
[6] = system: GABA-A (benzodiazapine binding site); test: Off-target screening (CEREP); design: species or system rat; settings: 10 µM, duplicates
Method: Supplementary Table 1 │ Off-target activity screening f or MCP compou nds […]
The assays given in the table above were conducted at Eurofins CEREP S A (Celle-Lévescault, France) and were run as single point measurements in duplicates in the presence of 10 µ M of the test compound and reported as percent inhibition of the radioligand signal or control enzymatic activity. n.d., not

[7] = system: A. baumannii; test: Immunocompetent mouse septicaemia infection model; assay type: in vivo; settings: for Survivors, individual mouse status: ACC00445 septicaemia
Method: Septicaemia was induced in CD-1 immunocompetent male mice by an intraperitoneal inoculation of a bacterial suspension of the tested A. baumannii isolate at a challenge of approximately 1–2 log[CFU] above the determined median lethal dose (resulting in 10^5 to 10^7 CFU per mouse). […] Mouse survival was followed over 6–7 days. GraphPad Prism 8 was used for graphical presentation of the data. Septicaemia studies with mutant derivative isolates obtained in resistance studies were performed as described above, using a bacterial challenge as determined for the parental isolate.

[8] = ATCC700603, CAMHB, mode of at least three replicates (RO7036668 one replicate)

Chain of CYP3A4 (P08684 whole entry): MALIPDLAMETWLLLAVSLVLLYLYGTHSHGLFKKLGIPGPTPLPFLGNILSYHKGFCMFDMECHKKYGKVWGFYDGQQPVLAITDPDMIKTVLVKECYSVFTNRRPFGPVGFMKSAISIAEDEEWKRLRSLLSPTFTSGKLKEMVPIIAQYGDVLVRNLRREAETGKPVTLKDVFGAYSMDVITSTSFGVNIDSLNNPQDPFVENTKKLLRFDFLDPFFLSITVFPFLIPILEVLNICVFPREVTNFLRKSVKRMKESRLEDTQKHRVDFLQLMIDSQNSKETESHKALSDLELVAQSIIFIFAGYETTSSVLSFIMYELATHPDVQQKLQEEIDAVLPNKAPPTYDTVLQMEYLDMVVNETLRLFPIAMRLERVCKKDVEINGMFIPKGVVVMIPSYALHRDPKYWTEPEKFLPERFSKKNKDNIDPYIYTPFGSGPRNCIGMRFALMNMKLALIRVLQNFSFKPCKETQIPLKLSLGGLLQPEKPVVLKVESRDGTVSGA

CN1C(=O)[C@H](CCCCN)NC(=O)[C@H](CCCN)NCc2cccnc2Sc2c(Cl)ccc(-c3ccc(C(=O)O)cc3)c2CNC(=O)[C@@H]1Cc1c[nH]c2ccccc12 [RO7202110]
MIC [1, 8]: > 64 µg/mL | MIC 100% ([1]; Study LGC294355, 100%): >64 µg/mL | MIC 100% ([1]; Study LGC295147, 100%): >64 µg/mL | MIC 100% ([1]; Study LGC299544, 100%): >64 µg/mL | MIC 100% ([1]; Study LGC308175, 100%): >64 µg/mL | Off-target hits [2]: 2 # | CYP inh. (3A4) [3]: >50 (3A4) >50 (2C9) >50 (2D6) μM | GSH adduct [4]: Clean | fu (m), fraction unbound in mouse plasma [5]: 10% | percent inhibition [6]: 14%

C[C@@H](O)[C@H]1C(=O)N2C(C(=O)O)=C(S[C@@H]3CN[C@H](C(=O)N(C)C)C3)[C@H](C)[C@H]12 [meropenem, reference compound]
MIC [1, 8]: ≤ 0.06 µg/mL | MIC ([1]; ATCC700603, read-out: MIC 100%, Study LGC277937, 100%): ≤ 0.06 µg/mL | MIC ([1]; ATCC700603, read-out: MIC 100%, Study LGC279800, 100%): ≤ 0.06 µg/mL | MIC ([1]; ATCC700603, read-out: MIC 100%, Study LGC281440, 100%): ≤ 0.06 µg/mL | MIC ([1]; ATCC700603, read-out: MIC 100%, Study LGC282160, 100%): ≤ 0.06 µg/mL | MIC ([1]; ATCC700603, read-out: MIC 100%, Study LGC282623, 100%): ≤ 0.06 µg/mL | MIC ([1]; ATCC700603, read-out: MIC 100%, Study LGC283932, 100%): ≤ 0.06 µg/mL | MIC ([1]; ATCC700603, read-out: MIC 100%, Study LGC284200, 100%): ≤ 0.06 µg/mL | MIC ([1]; ATCC700603, read-out: MIC 100%, Study LGC284879, 100%): ≤ 0.06 µg/mL | MIC ([1]; ATCC700603, read-out: MIC 100%, Study LGC285582, 100%): ≤ 0.06 µg/mL | MIC ([1]; ATCC700603, read-out: MIC 100%, Study LGC286210, 100%): ≤ 0.06 µg/mL | MIC ([1]; ATCC700603, read-out: MIC 100%, Study LGC293598, 100%): ≤ 0.06 µg/mL | MIC ([1]; ATCC700603, read-out: MIC 100%, Study LGC294355, 100%): ≤ 0.06 µg/mL | MIC ([1]; ATCC700603, read-out: MIC 100%, Study LGC295147, 100%): ≤ 0.06 µg/mL | MIC ([1]; ATCC700603, read-out: MIC 100%, Study LGC296813, 100%): ≤ 0.06 µg/mL | MIC ([1]; ATCC700603, read-out: MIC 100%, Study LGC299544, 100%): ≤ 0.06 µg/mL | MIC ([1]; ATCC700603, read-out: MIC 100%, Study LGC301026, 100%): ≤ 0.06 µg/mL | MIC ([1]; ATCC700603, read-out: MIC 100%, Study LGC308175, 100%): ≤ 0.06 µg/mL | MIC ([1]; ATCC700603, read-out: MIC 100%, Study ROC003, 100%): ≤ 0.06 µg/mL | MIC ([1]; ATCC700603, read-out: MIC 100%, Study ROC004, 100%): ≤ 0.06 µg/mL | MIC ([1]; ATCC700603, read-out: MIC 100%, Study ROC005, 100%): ≤ 0.06 µg/mL | MIC ([1]; ATCC700603, read-out: MIC 100%, Study ROC006, 100%): ≤ 0.06 µg/mL | MIC ([1]; ATCC700603, read-out: MIC 100%, Study ROC007, 100%): ≤ 0.06 µg/mL | MIC ([1]; ATCC700603, read-out: MIC 100%, Study ROC008, 100%): 0.12 µg/mL (≈ 0.313 µM) | MIC ([1]; ATCC700603, read-out: MIC 100%, Study ROC009, 100%): 0.06 µg/mL (≈ 0.156 µM) | MIC ([1]; ATCC700603, read-out: MIC 100%, Study ROC010, 100%): ≤ 0.06 µg/mL | MIC ([1]; ATCC700603, read-out: MIC 100%, Study ROC012, 100%): ≤ 0.06 µg/mL | MIC ([1]; ATCC700603, read-out: MIC 100%, Study ROC013, 100%): ≤ 0.06 µg/mL | Survivors, individual mouse status ([7]; 80 mg/kg, Day 1): 1 | Survivors, individual mouse status ([7]; 80 mg/kg, Day 2): 1 | Survivors, 2016-02-03 ([7]; murine septicaemia, MDR A. baumannii APV00535 (ACC00535), Meropenem 80 mg/kg, mark per mouse (10 mice), study VDD3948): 1

CN1C(=O)[C@H](CCCCN)NC(=O)[C@H](CCCN)NCc2cccnc2Sc2cccc(-c3ccc(C(=O)O)cc3)c2CNC(=O)[C@@H]1Cc1c[nH]c2ccccc12 [zosurabalpin]
RO7223280 MIC 100% ([1]; Study LGC296813): >64 µg/mL | RO7223280 MIC 100% ([1]; Study LGC299544): >64 µg/mL | RO7223280 MIC 100% ([1]; Study LGC308175): >64 µg/mL | MIC ([1]; ATCC700603): > 64 µg/mL | Off-target hits [2]: 0 # | CYP inh. (3A4) [3]: >50 (3A4) >50 (2C9) >50 (2D6) μM | GSH adduct [4]: Clean | fu (m), fraction unbound in mouse plasma [5]: 37% | Survival rate from sepsis, treated ([7]; ACC00445 parental, 2 x 30mg/kg s.c., vehicle 0): 0/100% | Survivors, individual mouse status ([7]; 0.3 mg/kg s.c. at 1 and 5 h, Day 1): 1 | Survival rate from sepsis, treated ([7]; ACC00535 parental, 2 x 30mg/kg, vehicle 0): 0/100% | Survival rate from sepsis, treated ([7]; ROB08706 parental, 2 x 30mg/kg, vehicle 0): 0/100% | Survival rate from sepsis, treated ([7]; ROB08708 parental, 2 x 30mg/kg, vehicle 0): 0/100% | Survival rate from sepsis, treated ([7]; ROB08961 (LpxM NS), 2 x 30mg/kg, vehicle 100): 100/100% | Survival rate from sepsis, treated ([7]; ROB08979 (LptF R322L), 2 x 30mg/kg, vehicle 25): 25/50% | Survival rate from sepsis, treated ([7]; ROB08982 (lpxM ISAba1), 2 x 30mg/kg, vehicle 87.5): 87.5/100% | Survival rate from sepsis, treated ([7]; ROB08985 (LpxM NS), 2 x 30mg/kg, vehicle 100): 100/100% | Survival rate from sepsis, treated ([7]; ROB08997 (LptF I323K), 2 x 30mg/kg, vehicle 0): 0/0% | Survival rate from sepsis, treated ([7]; ROB08998 (AdeR A91V), 2 x 30mg/kg, vehicle 12.5): 12.5/100% | Survival rate from sepsis, treated ([7]; ROB09000 (lpxM ISAba1), 2 x 30mg/kg, vehicle 100): 100/100% | Survival rate from sepsis, treated ([7]; ROB21530 (LptF W271S), 2 x 30mg/kg, vehicle 25): 25/37.5% | Survival rate from sepsis, treated ([7]; ROB21531 (LptG G40D), 2 x 30mg/kg, vehicle 0): 0/87.5% | Survival rate from sepsis, treated ([7]; ROB21532 (LptF R322C), 2 x 30mg/kg, vehicle 50): 50/50% | Survival rate from sepsis, treated ([7]; ROB21533 (LptF I317L), 2 x 30mg/kg, vehicle 0): 0/0% | Survival rate from sepsis, treated ([7]; ROB23370 (adeS ISAba1), 2 x 30mg/kg, vehicle 0): 0/75% | Survival rate from sepsis, treated ([7]; ROB23371 (AdeS R152K), 2 x 30mg/kg, vehicle 0): 0/100% | Survival rate from sepsis, treated ([7]; ROB23373 (AdeS G318S), 2 x 30mg/kg, vehicle 0): 0/100% | Survival rate from sepsis, treated ([7]; ROB23377 (AdeS R108S), 2 x 30mg/kg, vehicle 0): 0/100% | Survival rate from sepsis, treated ([7]; ROB23380 (adeS ISAba1), 2 x 30mg/kg, vehicle 0): 0/100% | percent inhibition [6]: -1%
